Experimental data published in patent publication US7851587B2, “Peptides derived from the C2 domain of epsilon PKC” (The Board of Trustees of the Leland Stanford Junior …, priority 2006, dated 2010).
“Also recorded” adds a separate entry of the source. Read-outs that look alike come from different tables or passages of the source. Ends that are not written are not given here.

Legend:
εPKC [1] = assay: εPKC translocation from the soluble to the particulate fraction in CHO cells (immunoblot); type: cell-based; details: for εPKC translocation in cells: 500 nM peptide for 15 minutes before sub-maximal 3 nM PMA, relative to control
Description: Upon activation, PKC translocates from the soluble to the particulate cell fraction, which translocation can be monitored by immunoblot analysis (26). It was previously determined that the effect of peptides on PKC translocation is better observed when the cells are treated with a sub-maximal concentration of PMA (22,42). Larger concentrations of PMA, a non-physiological activator, stimulate a greater degree of PKC translocation over translocation stimulated by peptide activators alone (51).
A representative activator (peptide 2) or inhibitor (peptide 7) were preincubated at 500 nM for 15 minutes with cells before sub-optimal stimulation with 3 nM PMA for 7 minutes.
PKC Translocation in Cells—εPKC translocation from the soluble to the particulate fraction in CHO cells was used to assess the relative amount of activated (membrane-bound) εPKC, an assay that has been described previously (42). Evidence of translocation is either by an increase in the amount of PKC in the particulate fraction or by a decrease in the soluble fraction. Briefly, after stimulation, cells were washed with cold PBS, scraped in homogenization buffer, passed through a (25G⅝″) syringe needle, and spun at 100,000 g for 30 min at 4° C. The pellet was then resuspended in homogenization buffer with 1% Triton X-100. Where applicable, the cells were pre-incubated with 500 nM peptide for 15 minutes prior to stimulation. PKC was stimulated with sub-maximal levels of the general PKC activator phorbol 12-myristate 13-acetate (PMA, 3 nM). The samples were then analyzed by Western blot. Antibodies against εPKC were obtained from Santa Cruz Biotechnology (Santa Cruz, Calif.) and used at 1:500 dilution.

εPKC [2] = biological target: T1, εPKC (Mus musculus, UniProt P16054); assay: In vivo PKC translocation in hearts after intraperitoneal injection (immunoblot); parameters: species or system mice; details: for translocation of εPKC in hearts in vivo: particulate fraction of mouse hearts, 15 minutes following IP injection of 20 nmol peptide, relative to control TAT peptide
T1 construct: from tissue; host or cells: mouse heart
T1 sequence (P16054 1-737): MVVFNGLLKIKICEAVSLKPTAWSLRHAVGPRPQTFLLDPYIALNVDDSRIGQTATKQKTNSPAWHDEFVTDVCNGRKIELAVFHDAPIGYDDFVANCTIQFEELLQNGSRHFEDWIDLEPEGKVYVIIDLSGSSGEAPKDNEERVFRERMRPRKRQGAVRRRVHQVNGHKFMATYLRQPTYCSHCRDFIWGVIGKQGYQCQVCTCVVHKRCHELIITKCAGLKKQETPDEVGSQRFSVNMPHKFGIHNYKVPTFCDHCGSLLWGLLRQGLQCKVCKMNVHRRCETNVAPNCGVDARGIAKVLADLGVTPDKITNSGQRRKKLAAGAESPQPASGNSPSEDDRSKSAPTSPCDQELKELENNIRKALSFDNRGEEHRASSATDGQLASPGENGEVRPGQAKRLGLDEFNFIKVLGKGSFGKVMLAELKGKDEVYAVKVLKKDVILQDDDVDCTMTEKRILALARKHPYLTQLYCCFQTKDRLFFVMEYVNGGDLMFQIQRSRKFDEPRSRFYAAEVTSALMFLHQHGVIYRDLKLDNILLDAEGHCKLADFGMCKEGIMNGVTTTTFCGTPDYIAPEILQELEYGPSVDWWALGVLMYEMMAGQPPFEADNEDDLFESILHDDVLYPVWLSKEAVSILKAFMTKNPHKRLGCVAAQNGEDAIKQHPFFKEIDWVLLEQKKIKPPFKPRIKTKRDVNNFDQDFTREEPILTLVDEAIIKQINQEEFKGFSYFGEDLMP
Description: (§1) In a further in vivo study, peptide activity and selectivity were examined using representative peptides injected into mice via intraperitoneal (IP) injection, and the amount of εPKC, δPKC, αPKC, and ζPKC translocation in hearts was determined. These four PKC isozymes represent each of the three major sub-families of PKC. In particular, εPKC and δPKC are members of the novel PKC family (calcium insensitive, diacylglycerol sensitive), αPKC is a classical PKC (calcium and diacylglycerol sensitive), and ζPKC is an atypical PKC (calcium and diacylglycerol insensitive).
(§2) Levels of εPKC, δPKC, αPKC, and ζPKC in the particulate fraction of mouse hearts were assayed by immunoblot 15 minutes following IP injection of 20 nmol each peptides (FIGS. 5A-5D). The accompanying graphs show quantitation based on two experiments, calculated as fold increase (+/−standard error) in the particulate fraction/total fraction, normalized to the actin loading control, and relative to the control TAT peptide. […] Since peptides 11 and 13 caused MARCKS phosphorylation in myocytes from the εPKC knockout mice (FIG. 3), it is concluded that they activated several PKC isozymes.
(§3) Isozyme Selectivity In Vivo—To determine that activator peptides causing MARCKS phosphorylation and decreasing ischemia-reperfusion damage in heart also induce εPKC translocation in vivo, we injected the respective peptides at 20 nmol in 200 μl saline into the peritoneum of 15-20 g mice, as previously reported (48). Fifteen minutes later, the mice were sacrificed and heart and brain were collected. Soluble and particulate fractions from mouse tissue were prepared as previously described (48). ε, ζ and δPKC translocation were determined by Western blot analysis using selective anti-PKC antibodies from Santa Cruz Biotechnology, Santa Cruz, Calif. and used at 1:500 dilution. Sarcomeric actin (1:1000, Sigma) was used as a loading control for all fractions.

PKC [3] = assay: MARCKS phosphorylation in primary skeletal muscle cells from εPKC knockout mice (Western blot); details: primary mouse muscle cells from εPKC knock-out mice; 1 μM peptide for 15 minutes
intact heart, ex vivo [4] = assay: Ex vivo cardiac protection, ischemia and reperfusion in Langendorff-perfused hearts (TTC staining, CPK release); parameters: species or system Wistar rats
intact heart, ex vivo [5] = details: pre-treatment, Langendorff apparatus; refs (4,43); cited from earlier work
δPKC = biological target: T2, δPKC (Mus musculus, UniProt P28867); assay: In vivo PKC translocation in hearts after intraperitoneal injection (immunoblot); parameters: species or system mice; details: particulate fraction of mouse hearts, 15 minutes following IP injection of 20 nmol peptide; relative to control TAT peptide
T2 construct: from tissue; host or cells: mouse heart
T2 sequence (P28867 whole entry): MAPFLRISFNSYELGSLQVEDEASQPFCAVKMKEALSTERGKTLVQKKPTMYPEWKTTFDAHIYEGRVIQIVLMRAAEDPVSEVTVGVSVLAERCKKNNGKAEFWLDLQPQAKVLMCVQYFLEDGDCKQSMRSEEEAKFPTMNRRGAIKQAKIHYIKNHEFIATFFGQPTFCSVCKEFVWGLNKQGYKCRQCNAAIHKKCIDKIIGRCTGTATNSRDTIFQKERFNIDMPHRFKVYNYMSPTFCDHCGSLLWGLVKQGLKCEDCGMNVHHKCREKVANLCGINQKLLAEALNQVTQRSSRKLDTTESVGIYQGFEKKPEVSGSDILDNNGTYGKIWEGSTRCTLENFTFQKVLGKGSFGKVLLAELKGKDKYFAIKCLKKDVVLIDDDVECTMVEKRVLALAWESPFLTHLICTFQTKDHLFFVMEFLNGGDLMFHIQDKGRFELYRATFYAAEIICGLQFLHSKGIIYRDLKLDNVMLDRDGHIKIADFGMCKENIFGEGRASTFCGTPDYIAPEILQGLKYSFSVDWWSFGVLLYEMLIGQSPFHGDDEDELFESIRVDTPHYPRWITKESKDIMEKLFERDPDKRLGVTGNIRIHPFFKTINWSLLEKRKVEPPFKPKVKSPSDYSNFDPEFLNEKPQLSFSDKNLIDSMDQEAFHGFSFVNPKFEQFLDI
Description: as §1, §2, §3

αPKC = biological target: T3, αPKC (Mus musculus, UniProt P20444); assay: as above; parameters: species or system mice; details: particulate fraction of mouse hearts, 15 minutes following IP injection of 20 nmol peptide; relative to control TAT peptide
T3 construct: from tissue; host or cells: mouse heart
Description: as §1, §2, §3

ηPKC = details: ηPKC-derived peptides; Ref. (1, 63); cited from earlier work
ηPKC, sequence (P24723 whole entry): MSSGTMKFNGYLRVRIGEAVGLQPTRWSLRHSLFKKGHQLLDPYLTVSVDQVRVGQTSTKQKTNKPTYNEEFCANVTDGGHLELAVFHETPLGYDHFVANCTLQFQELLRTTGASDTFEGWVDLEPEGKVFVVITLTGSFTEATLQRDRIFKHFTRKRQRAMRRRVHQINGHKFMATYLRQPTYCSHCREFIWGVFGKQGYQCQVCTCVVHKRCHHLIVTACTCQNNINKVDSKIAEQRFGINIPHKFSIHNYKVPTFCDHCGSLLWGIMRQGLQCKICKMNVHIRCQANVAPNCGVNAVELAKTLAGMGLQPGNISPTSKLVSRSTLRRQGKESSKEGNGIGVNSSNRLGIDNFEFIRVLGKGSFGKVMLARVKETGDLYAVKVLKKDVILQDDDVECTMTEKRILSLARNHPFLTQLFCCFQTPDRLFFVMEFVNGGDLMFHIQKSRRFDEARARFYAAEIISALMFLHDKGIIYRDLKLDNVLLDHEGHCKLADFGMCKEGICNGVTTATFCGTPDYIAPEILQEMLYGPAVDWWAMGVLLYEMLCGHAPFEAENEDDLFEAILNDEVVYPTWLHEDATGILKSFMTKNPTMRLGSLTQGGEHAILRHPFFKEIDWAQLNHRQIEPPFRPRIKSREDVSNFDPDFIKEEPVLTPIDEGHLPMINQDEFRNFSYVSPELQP

PKC [6] = details: primary mouse muscle cells, wild-type; 1 μM peptide for 15 or 30 minutes prior to cell lysis
[7] = 1 μM TAT-conjugated peptide 10 minutes prior to 40 minutes global ischemia, 60 minutes reperfusion (peptide 9: 30 minutes ischemia), † and ‡ = trend towards cardioprotective (n = 5, n = 3)

Substance: CFNGLLKIKI (not fully specified (residue 1)) [Peptide 1]
- εPKC translocation in cells (εPKC [1]): activator
- translocation of εPKC in hearts in vivo (εPKC [2]): caused translocation of εPKC
- MARCKS phosphorylation in εKO Cells (PKC [3]): not in KO; also recorded: no effect
- Cardioprotective ex vivo (intact heart, ex vivo [4]; [7]): trend towards cardioprotection and yes†

Substance: CHDAPIGYD [ψεRACK, reference compound]
- εPKC translocation in cells (εPKC [1]): activator
- translocation of εPKC in hearts in vivo (εPKC [2]): caused translocation of εPKC
- MARCKS phosphorylation in εKO Cells (PKC [3]): not in KO; also recorded: no effect
- damage (infarction) of hearts subjected to ischemia and reperfusion ex vivo (intact heart, ex vivo [5]): reduced damage
- Cardioprotective ex vivo (intact heart, ex vivo [4]; [7]): cardioprotective and yes

Substance: CLSETKPAV (not fully specified; also: TAT47-57 conjugated) [scrambled εV1-2, reference compound]
- εPKC translocation in cells (εPKC [1]): stimulated εPKC translocation; also recorded: activator
- translocation of δPKC in hearts in vivo (δPKC): did not cause an increase
- PKC translocation, in vivo (εPKC [2]; mouse hearts, 15 minutes after IP injection of 20 nmol peptide, the cell words say which of ε, δ, α, ζPKC translocate): no
- translocation of εPKC in hearts in vivo (εPKC [2]): did not cause an increase
- MARCKS phosphorylation in εKO Cells (PKC [3]): no effect
- Cardioprotective ex vivo (intact heart, ex vivo [4]): not cardioprotective and no

Substance: CLEPEGK [Peptide 12]
- εPKC translocation in cells (εPKC [1]): decrease in the amount of εPKC in the pellet fraction; also recorded: inhibitor

Substance: CNGRKI (not fully specified; also: TAT47-57 carrier linked via Cys disulfide) [Peptide 9]
- εPKC translocation in cells (εPKC [1]): activator
- MARCKS phosphorylation in εKO Cells (PKC [3]): not in KO; also recorded: no effect
- Cardioprotective ex vivo (intact heart, ex vivo [4]): cardioprotective and yes

Substance: CEAVSLKPT [εV1-2, reference compound]
- εPKC translocation in cells (εPKC [1]): decrease in the amount of εPKC in the pellet fraction; also recorded: inhibitor
- MARCKS phosphorylation in εKO Cells (PKC [3]): no effect
- Cardioprotective ex vivo (intact heart, ex vivo [4]; [7]): no

Substance: CHFEDWID (not fully specified; also: TAT47-57 carrier linked via Cys disulfide) [Peptide 11]
- translocation of δPKC in hearts in vivo (δPKC): substantial translocation
- translocation of εPKC in hearts in vivo (εPKC [2]): substantial translocation
- translocation of αPKC in hearts in vivo (αPKC): substantial translocation
- MARCKS phosphorylation in εKO Cells (PKC [3]): increased MARCKS phosphorylation; also recorded: activator
- Cardioprotective ex vivo (intact heart, ex vivo [4]): not cardioprotective and no

Substance: EAVGLQPT (peptide derived from eta PKC)
- Activity (known PKC-modulating activity) (ηPKC): inhibitor

Substance: CEFVTDV [Peptide 8]
- εPKC translocation in cells (εPKC [1]): activator
- MARCKS phosphorylation in εKO Cells (PKC [3]): not conclusive
- Cardioprotective ex vivo (intact heart, ex vivo [4]): not cardioprotective and no

Substance: CAVGPRPQT (not fully specified (residue 1)) [Peptide 2]
- increase in the amount of εPKC translocation compared to pre-treatment with the TAT control peptide (εPKC [1]; 500 nM peptide 15 minutes, then 3 nM PMA 7 minutes, n=5, p<0.05): approximately 30%
- εPKC translocation in cells (εPKC [1]): activator
- MARCKS phosphorylation in εKO Cells (PKC [3]): not in KO; also recorded: no effect
- Cardioprotective ex vivo (intact heart, ex vivo [4]; [7]): cardioprotective and yes

Substance: HETPLGYD (peptide derived from eta PKC)
- Activity (known PKC-modulating activity) (ηPKC): activator

Substance: CTATKQKT (not fully specified; also: TAT47-57 carrier linked via Cys disulfide) [Peptide 6]
- εPKC translocation in cells (εPKC [1]): activator
- MARCKS phosphorylation in WT Cells (PKC [6]): activator
- MARCKS phosphorylation in εKO Cells (PKC [3]): weak activator
- Cardioprotective ex vivo (intact heart, ex vivo [4]): cardioprotective and yes

Substance: CSRIGQ [Peptide 5]
- εPKC translocation in cells (εPKC [1]): activator
- translocation of εPKC in hearts in vivo (εPKC [2]): caused translocation of εPKC
- MARCKS phosphorylation in εKO Cells (PKC [3]): not in KO; also recorded: no effect
- Cardioprotective ex vivo (intact heart, ex vivo [4]): cardioprotective and yes

Substance: CPYIALNVD (not fully specified (residue 1)) [Peptide 4]
- εPKC translocation in cells (εPKC [1]): decrease in the amount of εPKC in the pellet fraction; also recorded: inhibitor

Substance: CPAWHD [Peptide 7]
- decrease in the amount of translocated εPKC compared to pre-treatment with the TAT control peptide (εPKC [1]; 500 nM peptide 15 minutes, then 3 nM PMA 7 minutes, n=3, p<0.01): approximately 50%
- εPKC translocation in cells (εPKC [1]): decrease in the amount of εPKC in the pellet fraction; also recorded: inhibitor
- Cardioprotective ex vivo (intact heart, ex vivo [4]): no

Substance: CYGRKKRRQRRR (TAT carrier peptide with N-terminal cysteine) [reference compound]
- εPKC translocation in cells (εPKC [1]): no effect
- MARCKS phosphorylation in WT Cells (PKC [6]): no effect
- MARCKS phosphorylation in εKO Cells (PKC [3]): no effect
- Cardioprotective ex vivo (intact heart, ex vivo [4]; [7]): no
- Cardioprotective ex vivo (intact heart, ex vivo [4]; 1 μM TAT-conjugated peptide 10 minutes prior to 40 minutes global ischemia, 60 minutes reperfusion (peptide 9: 30 minutes ischemia), † and ‡ = trend towards cardioprotective (n = 5, n = 3), listed as TAT): not cardioprotective

Substance: CVYVIIDL (not fully specified (residue 1)) [Peptide 13]
- εPKC translocation in cells (εPKC [1]): activator
- MARCKS phosphorylation in εKO Cells (PKC [3]): increased MARCKS phosphorylation; also recorded: activator
- Cardioprotective ex vivo (intact heart, ex vivo [4]): not cardioprotective and no

Substance: CPDYHDAGI (not fully specified; also: TAT47-57 conjugated) [scrambled ψεRACK, reference compound]
- MARCKS phosphorylation in WT Cells (PKC [6]): No change
- Cardioprotective ex vivo (intact heart, ex vivo [4]): not cardioprotective and no

Substance: CFLLDPY [Peptide 3]
- εPKC translocation in cells (εPKC [1]): activator
- MARCKS phosphorylation in εKO Cells (PKC [3]): not in KO; also recorded: no effect
- Cardioprotective ex vivo (intact heart, ex vivo [4]): trend towards cardioprotection and yes‡

Substance: CIELAVF [Peptide 10]
- εPKC translocation in cells (εPKC [1]): activator
- MARCKS phosphorylation in WT Cells (PKC [6]): activator
- MARCKS phosphorylation in εKO Cells (PKC [3]): not conclusive
- Cardioprotective ex vivo (intact heart, ex vivo [4]): no
